Source: patent US8263655B2, “Methods for treatment of renal failure” (Technion Research and Development Foundation Ltd, priority 2005, dated 2012)

Columns and labels:
rats with renal ischemia = assay: Rat renal ischemia-reperfusion injury (IRI) model of acute renal failure, renal clearance study; assay type: in vivo, Sprague Dawley rats; details: for diuretic and natriuretic responses and GFR in the ischemic kidney: summary statement
Experimental: (§1) (ii) Animals. Studies were conducted on Sprague Dawley rats (Harlan Laboratories Ltd., Jerusalem, Israel), weighing 290˜330 g. The animals were kept in a temperature-controlled room, and were fed standard rat chow containing 0.5% NaCl and tap water ad libitum. All experiments were performed according to the guidelines of the Technion Committee for Supervision of Animal Experiments (Haifa, Israel). Rats were subjected to one of the experimental protocols, described in Examples 1 and 2 hereinafter.
(§2) (iii) Chemical analysis. Sodium concentration in plasma and urine was determined by flame photometry (model IL 943, Instrumentation Laboratory). Inulin and creatinine concentrations were determined by the colorimetric anthrone method. Glomerular filtration rate (GFR) was equated with the clearance of inulin or creatinine.
For this purpose, the effects of either rasagiline or S-(−)-N-propargyl-1-aminoindan on renal clearance parameters, i.e., glomerular filtration rate (GFR), absolute and fractional sodium excretion rates (UNaV and FENa, respectively), and urinary flow (V) were studied in rats that underwent renal ischemia. Rats that underwent the same procedure, but were treated with vehicle, served as controls.
The surgical procedure for the induction of renal ischemia has been previously described (Sela et al., 1992). Briefly, the animals were anesthetized with Inactin (100 mg/kg, i.p.), placed on a thermo-regulated (37° C.) surgical table and prepared for hemodynamic and clearance studies (Brodsky et al., 1998). After tracheotomy, polyethylene tubes (PE50) were inserted into the carotid artery, jugular vein and urinary bladder for blood pressure monitoring, infusion of various solutions and urine collections, respectively. A solution of 2% inulin in 0.9% saline was infused throughout the experiment at a rate of 1.0% of body weight per hour. […] Then, the left kidney was exposed and the renal artery was clamped for forty-five minutes of ischemia, followed by 60 min of reperfusion. The right kidney served as the control, for each animal. Thirty minutes prior to the induction of the renal ischemia, animals were treated with either rasagiline or S-(−)-N-propargyl-1-aminoindan administered as a bolus injection (1.0 mg/kg, I.V.), followed by a sustained infusion of the drugs at a dose of 2 mg/kg/h throughout the whole experiment. Animals treated with saline served as controls. Then, two additional clearance periods were obtained under the influence of the drug. Urine volume was determined gravimetrically. Blood samples were obtained in the midst of every 2nd clearance period.

rats with CHF = assay: Chronic administration to rats with experimental congestive heart failure (aortocaval fistula), renal excretory parameters; assay type: in vivo, Sprague Dawley rats; details: for diuretic and natriuretic responses in rats with congestive heart failure: summary statement
Experimental: as §1, §2
Following surgery, the rats were allowed to recover and housed in individual metabolic cages for measurements of daily urine volume and urinary sodium/potassium excretion.
Rasagiline or S-(−)-N-propargyl-1-aminoindan were dissolved in drinking water and given orally at a dose of 1 or 7.5 mg/kg/day for 5 days to normal rats. Following this period, the animals were subjected either to sham operation (n=6) or to creation of aortocaval fistula (ACF) (n=6) as described above. These experimental groups were treated daily by gavage with 1 or 7.5 mg/kg of rasagiline or S-(−)-N-propargyl-1-aminoindan for additional 14 days, and their daily urine volume, sodium and potassium excretion were measured. Rats treated with vehicle (water) served as controls. After completion of the treatment period, animals from the different experimental groups were killed by decapitation and their blood was collected in pre-cooled tubes. Rats with sham operation or animals with arterio-venous fistula treated with vehicle served as controls.

| SMILES | glomerular filtration rate (GFR), function of the ischemic kidney (rats with renal ischemia; ischemic (left) kidney, 1.0 mg/kg I.V. bolus 30 min prior to ischemia, then 2 mg/kg/h infusion, 45 min ischemia, 60 min reperfusion, FIG. 1B) | fractional excretion of Na+ (FENa) by ischemic kidney (rats with renal ischemia; ischemic kidney, 1.0 mg/kg I.V. bolus, then 2 mg/kg/h infusion, FIG. 2B) | fractional excretion of Na+ (FENa) by normal kidney (rats with renal ischemia; normal kidney, 1.0 mg/kg I.V. bolus, then 2 mg/kg/h infusion, FIG. 2A) | diuretic and natriuretic responses and GFR in the ischemic kidney (rats with renal ischemia; ischemic kidney) | GFR (creatinine clearance test) (rats with CHF; rats with CHF, 1 or 7.5 mg/kg/day by gavage for 2 weeks, FIG. 6) | urinary flow rate (daily urine volume) (rats with CHF; rats with CHF, 1 or 7.5 mg/kg/day orally, 14 days after fistula, FIGS. 3A-3B) | absolute (daily) urinary sodium excretion (rats with CHF; rats with CHF, 1 or 7.5 mg/kg/day orally, 14 days, FIG. 4) | cumulative urinary sodium excretion (rats with CHF; rats with CHF, 1 or 7.5 mg/kg/day orally, 14 days, FIG. 5) | diuretic and natriuretic responses in rats with congestive heart failure (rats with CHF) |
| --- | --- | --- | --- | --- | --- | --- | --- | --- | --- |
| C#CCN[C@H]1CCc2ccccc21 [S-(−)-N-propargyl-1-aminoindan] | improved the function of the ischemic kidney | enhanced FENa by ischemic kidney more than rasagiline | increased the fractional excretion of Na^+ (FENa) by normal kidney | diuretic and natriuretic responses accompanied by improved GFR | enhanced GFR | increased the urinary flow rate | markedly enhanced | markedly enhanced | significant diuretic and natriuretic responses |
| C#CCN[C@@H]1CCc2ccccc21 [rasagiline, R(+)-N-propargyl-1-aminoindan, reference compound] |  |  |  | diuretic and natriuretic responses accompanied by improved GFR |  |  |  |  | significant diuretic and natriuretic responses |
